Test results reported in US10947199B2, “Spiro and cyclic bis-benzylidene proteasome inhibitor for the treatment of cancer, diabetes and neurological disorders” (UP THERAPEUTICS, INC., priority 2017, dated 2021).
Entries after “also recorded” stand apart in the source; their conditions may differ.

Tests used:
[1] = tested on: proteasome function (4Ub-FL reporter) in 293TT cells; assay: 4Ub-FL reporter assay of proteasome function in live cells; format: cell-based; settings: 293TT cells expressing 4Ub-FL; for 4Ub-FL reporter stabilization / bioluminescence increase (qualitative): dose dependent
Description: (§1) To measure proteasome function in live cells, we utilized an engineered ubiquitin-firefly (4Ub-FL) reporter in which four copies of mutant ubiquitin (ubiquitin G76V) gene are fused to the N-terminus of the firefly luciferase (FL) gene. The results of this experiment, shown in FIG. 1, reveal that the 4Ub-FL reporter protein is rapidly degraded by the proteasome.
as §1, with “The” for “The results of this experiment, shown in FIG. 1, reveal that the”, “proteasome (FIG. 6). […] Treatment of Up109 produced a greater increase in the 4Ub-FL bioluminescence in a dose dependent manner.” for “proteasome.”

[2] = tested on: NFκB reporter in 293 cells; assay: NFκB reporter assay in 293 cells stimulated with TNF-a; format: cell-based; settings: 293 cells carrying NFκB reporter construct
Description: (§2) NFκB is constitutively activated in many cancers including high grade cervical intraepithelial neoplasia (CIN) and cervical cancer.

[3] = tested on: SKOV3-TR; assay: MTT cell viability assay, SKOV3-TR; format: cell-based; settings: for difference in activity between SKOV3 and its taxol resistant line (SKOV3-TR): SKOV3 vs SKOV3-TR; for IC50: SKOV3-TR, Ovarian Cancer (taxol resistant), MTT, 24 or 48 or 72 hours
Procedure: (§3) Briefly cancer cells incubated with Up compounds for the period of 24 or 48 or 72 hours and the cell viability was measured using MTT assay. IC50 of compounds listed in Table1.

[4] = tested on: RPMI8226-R; assay: MTT cell viability assay, RPMI8226-R; format: cell-based; settings: Multiple Myeloma, 24 or 48 or 72 hours
Procedure: as §3

[5] = tested on: HepG2; assay: MTT cell viability assay, HepG2; format: cell-based; settings: HepG2, Liver Cancer, 24 or 48 or 72 hours
Procedure: as §3

[6] = tested on: human ovarian cancer ES2 xenograft (ES2-Lu); assay: ES2-Lu ovarian cancer xenograft, intraperitoneal; format: in vivo; settings: nude female mice, 10 mg/Kg on alternate days for two weeks
Procedure: To test the efficacy of Up109 to treat the human ovarian cancer ES2 xenograft model, the luciferase-expressing ES2 cells (ES2-Lu) were inoculated into peritoneal cavity of nude female mice (i.e. orthotopically). Two days after inoculation the mice were imaged for their basal luminescence activity and then randomized into two groups (n=10). First group was treated with the vehicle and the second group was treated with Up109 (10 mg/Kg) on alternate days for two weeks. Mice were imaged after the first and second week of treatment for their luciferase activity. […] Tumor burden in the vehicle group mice was excessive and sacrificed at the end of the treatment (FIG. 10).

[7] = tested on: OV2008 cancer cells; assay: Colony formation, OV2008; format: cell-based; settings: corresponding to IC50 values
[8] = molecular target: T1, RPN13 (Homo sapiens, UniProt Q16186); assay: RA190B probe competition assay, OV2008 cell lysate; format: binding; settings: compound 25 μM, RA190B 5 μM
T1 construct: HeLa cell lysate was pretreated with Up109 or Up117; endogenous in cells; host or cells: HeLa cell lysate
T1 sequence (Q16186 whole entry): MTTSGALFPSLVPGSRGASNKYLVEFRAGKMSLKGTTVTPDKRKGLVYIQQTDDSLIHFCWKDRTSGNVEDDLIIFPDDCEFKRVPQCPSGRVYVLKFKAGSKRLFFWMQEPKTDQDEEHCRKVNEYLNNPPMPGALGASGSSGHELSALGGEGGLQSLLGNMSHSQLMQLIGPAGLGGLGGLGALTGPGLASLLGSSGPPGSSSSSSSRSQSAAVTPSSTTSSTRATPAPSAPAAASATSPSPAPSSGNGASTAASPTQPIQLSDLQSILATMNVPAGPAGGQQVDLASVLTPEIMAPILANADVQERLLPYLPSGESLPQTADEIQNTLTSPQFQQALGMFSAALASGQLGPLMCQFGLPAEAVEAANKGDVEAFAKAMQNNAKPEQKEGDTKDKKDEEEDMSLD
Procedure: (§4) To identify the cellular target, a competition assay was performed using RA190B probe. […] We used RA190B as a probe to determine the Up compounds binding to RPN13. OV2008 cell lysate was pretreated with Up compounds (25 μM) and then subsequently treated with RA190B (5 μM). Lysate was denatured under reduced conditions and proteins were separated on a gel and probed with HRP Streptavidin.

[9] = tested on: A2780; assay: MTT cell viability assay, A2780; format: cell-based; settings: A2780, Ovarian Cancer, 24 or 48 or 72 hours
Procedure: as §3

[10] = tested on: ES2 cells; assay: Annexin-V staining by FACS of ES2 cells; format: cell-based, human; settings: 12 h
Procedure: FIG. 8: (A) CHOP-10 quantification in ES2 cells treated with Up109 for 12 h; (B) Annexin-V staining by FACS analysis of ES2 cells treated with Up109 and Bortezomib for 12 h.
(§5) Accumulation of unfolded proteins upon the inhibition of proteasome function rapidly induces endoplasmic reticulum (ER) stress. ER stress triggers an evolutionarily conserved series of signal-transduction events, which constitute the unfolded protein response (UPR). The UPR attempts to restore protein homeostasis by eliminating the accumulated unfolded proteins in the ER; however, if protein homeostasis cannot be restored, apoptosis is triggered. C/EBP homologous protein (CHOP) is elevated at the onset of UPR-induced programmed cell death.

[11] = tested on: HFF(primary human foreskin fibroblast); assay: MTT cell viability assay, HFF; format: cell-based; settings: Normal Cell line, 24 or 48 or 72 hours
Procedure: as §3

[12] = tested on: IkB-a in HeLa cells; assay: IkB-a stabilization in HeLa cells with TNF-a; format: cell-based; settings: in the presence of TNF-a
Description: as §2

[13] = tested on: CHOP-10 mRNA in ES2 cells; assay: CHOP-10 mRNA expression in ES2 cells; format: cell-based, human; settings: 12 h
Description: as §5

[14] = tested on: DU145; assay: MTT cell viability assay, DU145; format: cell-based; settings: DU145, Prostate Cancer, 24 or 48 or 72 hours
Procedure: as §3

[15] = tested on: HCC1806; assay: MTT cell viability assay, HCC1806; format: cell-based; settings: HCC1806, Triple Negative Breast Cancer, 24 or 48 or 72 hours
Procedure: as §3

[16] = tested on: SKOV3; assay: MTT cell viability assay, SKOV3; format: cell-based; settings: SKOV3, Ovarian Cancer, 24 or 48 or 72 hours
Procedure: as §3

[17] = tested on: OVCAR5; assay: MTT cell viability assay, OVCAR5; format: cell-based; settings: OVCAR5, Ovarian Cancer, 24 or 48 or 72 hours
Procedure: as §3

[18] = tested on: MM.1S; assay: MTT cell viability assay, MM.1S; format: cell-based; settings: Multiple Myeloma, 24 or 48 or 72 hours
Procedure: as §3

[19] = tested on: OVCAR3; assay: MTT cell viability assay, OVCAR3; format: cell-based; settings: OVCAR3, Ovarian Cancer, 24 or 48 or 72 hours
Procedure: as §3

[20] = tested on: ES2; assay: MTT cell viability assay, ES2; format: cell-based, human; settings: ES2, Ovarian Cancer, 24 or 48 or 72 hours
Procedure: as §3

[21] = tested on: proteasome (4UbFL reporter) in muscle cells; assay: 4UbFL reporter in muscle of live mice, IVIS imaging; format: in vivo; settings: Balb/c mice, i.p. 40 mg/Kg; imaged 4 h, 24 h and 48 h post treatment
Procedure: To test for proteasome inhibition by Up109 in vivo, muscle cells of live Balb/c mice transduced with the 4UbFL reporter DNA construct by electroporation. After i.p. injection of luciferin, the enzymic activity of luciferase in the transfected muscle tissue was visualized as bioluminescence using an IVIS imager. At two days post electroporation of the 4UbFL DNA, mice were imaged and base line luminescence recorded. The control group (n=5) of mice was treated i.p. with vehicle alone and another group (n=5) treated i.p with Up109 (40 mg/Kg). After 4 h, 24 h and 48 h post treatment mice were again imaged and luminescence was quantified (FIG. 9).

[22] = tested on: HS578T; assay: MTT cell viability assay, HS578T; format: cell-based; settings: Triple Negative Breast Cancer, 24 or 48 or 72 hours
Procedure: as §3

[23] = tested on: A2780 cancer cells; assay: Colony formation, A2780; format: cell-based; settings: corresponding to IC50 values
[24] = Dose limiting toxicity studies; format: in vivo
Procedure: To identify the optimal dose that induces a clinical effect and operates with acceptable toxicity a set of experiments has been performed on female Balb/C strain mice with Up109. Individual groups of mice (n=3) were injected i.p. with increasing single doses of Up109 (3, 10, 20, 40 and 100 mg/Kg) and the endpoint evaluations included clinical observations and body weights. […] Another experiment was done with repeated i.p. doses of Up109 (40 mg/Kg, n=5) every other day for two weeks.

[25] = tested on: K48-linked polyubiquitinated proteins in HeLa cells; assay: anti-K48-linked ubiquitin immunoblot in HeLa cells; format: cell-based; settings: 4 hr treatment
Description: Accumulation of poly ubiquitinated proteins is a general phenomenon of proteasome inhibition. We examined the impact of these compounds on the levels of polyubiquitinated proteins in HeLa cells by anti-K48-linked ubiquitin immunoblot analysis.

[26] = tested on: HeLa; assay: MTT cell viability assay, HeLa; format: cell-based; settings: Cervical Cancer, 24 or 48 or 72 hours
Procedure: as §3

[27] = tested on: PC-3; assay: MTT cell viability assay, PC-3; format: cell-based; settings: PC-3, Prostate Cancer, 24 or 48 or 72 hours
Procedure: as §3

[28] = tested on: RPMI8226; assay: MTT cell viability assay, RPMI8226; format: cell-based; settings: RPMI8226, Multiple Myeloma, 24 or 48 or 72 hours
Procedure: as §3

[29] = tested on: MDA-MB-231; assay: MTT cell viability assay, MDA-MB-231; format: cell-based; settings: MDA-MB-231, Triple Negative Breast Cancer, 24 or 48 or 72 hours
Procedure: as §3

[30] = tested on: OV2008; assay: MTT cell viability assay, OV2008; format: cell-based; settings: OV2008, Ovarian Cancer, 24 or 48 or 72 hours
Procedure: as §3

[31] = molecular target: T1, RPN13; assay: RA190B probe competition assay, HeLa cell lysate; format: binding; settings: HeLa cell lysate pretreated with compound
Procedure: as §4, with “compound” for “compounds”, “HeLa” for “OV2008”, “Up109 or Up117” for “Up compounds (25 μM)”, “RA190B.” for “RA190B (5 μM).”, “HRPStreptavidin.” for “HRP Streptavidin.”

[32] = tested on: LNCaP; assay: MTT cell viability assay, LNCaP; format: cell-based; settings: Prostate Cancer, 24 or 48 or 72 hours
Procedure: as §3

| SMILES | increase in 4Ub-FL bioluminescence compared to before treatment [1] | NFκB reporter activity after stimulation with TNF-a [2] | difference in activity between SKOV3 and its taxol resistant line (SKOV3-TR) [3] | IC50 [4] [nM] | IC50 [5] [nM] | colony formation [7] | competition with RA190B for binding to RPN13 [8] | IC50 [9] [nM] | IC50 [11] [nM] | stabilization of IkB-a [12] | IC50 [14] [nM] | IC50 [15] [nM] | IC50 [16] [nM] | IC50 [17] [nM] | IC50 [18] [nM] | IC50 [20] [nM] | 4Ub-FL reporter stabilization / bioluminescence increase (qualitative) [1] | IC50 [22] [nM] | colony formation [23] | levels of K48-linked polyubiquitinated proteins [25] | further results |
| --- | --- | --- | --- | --- | --- | --- | --- | --- | --- | --- | --- | --- | --- | --- | --- | --- | --- | --- | --- | --- | --- |
| Cl.N[C@@H](Cc1ccccc1)C(=O)N1C/C(=C/c2ccc(Cl)c(Cl)c2)C(=O)/C(=C\c2ccc(Cl)c(Cl)c2)C1 [RA190, reference compound] | fivefold increase | significant dose-dependent decrease | – | – | – | – | – | – | – | – | – | – | – | – | – | – | – | – | – | – | – |
| CC(=O)O[C@H]1C(=O)[C@@]2(C)[C@H]([C@H](OC(=O)c3ccccc3)[C@]3(O)C[C@H](OC(=O)[C@H](O)[C@@H](NC(=O)c4ccccc4)c4ccccc4)C(C)=C1C3(C)C)[C@]1(OC(C)=O)CO[C@@H]1C[C@@H]2O [Taxol, reference compound] | – | – | 7 fold | – | – | – | – | – | – | – | – | – | – | – | – | – | – | – | – | – | – |
| C=CC(=O)N1CCC2(CC1)C(=Cc1ccc([N+](=O)[O-])cc1)C(=O)C2=Cc1ccc([N+](=O)[O-])cc1 [Up109] | thirteen-fold increase | significant dose-dependent decrease | similarly active | 61 | 118 | significantly blocked colony formation | Disappearance of RA190B labeling | 13 | > 1250 | Stabilization of IkB-a was observed | 77 | 42 | 45 | 19 | 35 | 22 | greater increase in the 4Ub-FL bioluminescence than RA190; also recorded: stabilization and an increase in luciferase activity | 17 | significantly blocked colony formation | dramatically increased | weight loss and observable side effects [6]: no weight loss and any observable side effects; tumor burden compared to the vehicle ([6]; ES2-Lu i.p.): significantly reduced the tumor burden; Annexin-V positive cells (apoptosis) [10]: elevation of apoptosis; CHOP-10 mRNA expression [13]: rapidly up-regulated; IC50 [19]: 21 nM; 4UbFL reporter stabilization in vivo (bioluminescence) [21]: Stabilized; toxicities/weight loss, repeated dose ([24]; Balb/C mice, i.p. 40 mg/Kg every other day for two weeks): No observable toxicities/weight loss; clinical observations and body weights, single dose ([24]; female Balb/C mice, single i.p. doses 3, 10, 20, 40 and 100 mg/Kg): No clinically apparent sign of adverse effect; IC50 [26]: 75 nM; IC50 [27]: 57 nM; IC50 [3]: 58 nM; IC50 [28]: 123 nM; IC50 [29]: 38 nM; IC50 [30]: 34 nM; competition with RA190B for binding to RPN13 [31]: disappearance of RA190B labeling; IC50 [32]: 65 nM |
| O=C(CCl)NC(Cc1ccccc1)C(=O)N1CCC2(CC1)C(=Cc1ccc([N+](=O)[O-])cc1)C(=O)C2=Cc1ccc([N+](=O)[O-])cc1 (stereo not drawn) [Up117] | – | significant dose-dependent decrease | similarly active | 78 | 447 | significantly blocked colony formation | Disappearance of RA190B labeling | 22 | > 1250 | Stabilization of IkB-a was observed | 130 | 71 | 157 | 37 | 42 | 41 | greater increase in the 4Ub-FL bioluminescence than RA190 | 32 | significantly blocked colony formation | dramatically increased | IC50 [26]: 89 nM; IC50 [27]: 74 nM; IC50 [3]: 202 nM; IC50 [28]: 140 nM; IC50 [29]: 56 nM; IC50 [30]: 47 nM; competition with RA190B for binding to RPN13 [31]: disappearance of RA190B labeling; IC50 [32]: 87 nM |
